Laboratory results taken from ChEMBL document CHEMBL1201862, “PubChem BioAssay data set” (2004).
Activity calls are given as the source filed them. Unless noted, the calls are words filed in the database; no cut-off is given here.

What was measured:
[1] = target: T1, Sentrin-specific protease 8 (Homo sapiens, UniProt Q96LD8); type: functional
T1 sequence (Q96LD8 whole entry): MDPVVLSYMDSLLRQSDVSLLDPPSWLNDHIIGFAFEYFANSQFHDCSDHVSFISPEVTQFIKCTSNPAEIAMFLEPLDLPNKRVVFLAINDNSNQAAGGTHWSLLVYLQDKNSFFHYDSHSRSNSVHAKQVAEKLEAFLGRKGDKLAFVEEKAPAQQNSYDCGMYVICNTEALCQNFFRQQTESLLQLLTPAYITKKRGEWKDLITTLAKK

Caspase-3 = target: T2, Caspase-3 (Homo sapiens, UniProt P42574); experiment: Dose-response confirmation of uHTS inhibitor hits of Sentrin-Specific Protease 8 in a Caspase-3 Fluorescence assay.; type: functional
T2 sequence (P42574 whole entry): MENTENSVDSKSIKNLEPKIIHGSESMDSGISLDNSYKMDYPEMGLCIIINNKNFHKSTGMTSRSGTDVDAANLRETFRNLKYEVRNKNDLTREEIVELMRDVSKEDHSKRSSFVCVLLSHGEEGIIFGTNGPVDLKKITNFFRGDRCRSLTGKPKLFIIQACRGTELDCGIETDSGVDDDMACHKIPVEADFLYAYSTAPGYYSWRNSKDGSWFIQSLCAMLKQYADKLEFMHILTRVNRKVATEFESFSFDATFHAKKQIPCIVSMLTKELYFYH

[2] = target: T1, Sentrin-specific protease 8; type: functional; remark: listed apart in the source
[3] = target: Botulinum neurotoxin type F (Clostridium botulinum, UniProt P30996); experiment: High-throughput multiplex microsphere dose response for inhibitors of toxin protease, specifically Botulinum neurotoxin light chain F protease, compounds from Cherry Pick 02.; type: functional; details: read-out: EC50_MICROM
[4] = target: Latent membrane protein 1 (Human herpesvirus 4 (strain B95-8), UniProt P03230); experiment: LMP1 TES1 pathway selectivity over dsRED control – imaging, HEK293T, dual-color eGFP/dsRED, cherry-picks, selectivity assay for LMP1 NF-kB inhibitor project, dose response (AID 588398); type: functional, cell-based
[5] = target: T3, Beta-2 adrenergic receptor (Homo sapiens, UniProt P07550); experiment: ADRB2 activation measured by internalization – cell-based, FAP fluorogen, flow cytometry, cherry pick 1, dose response (AID 588763); type: functional
[6] = target: T3, Beta-2 adrenergic receptor; experiment: Dose response for HTS for Beta-2AR agonists via FAP method from Powderset2.; type: functional
[7] = target: T4, Diacylglycerol lipase-beta (Mus musculus, UniProt Q91WC9); experiment: Late stage assay provider results from the probe development effort to identify inhibitors of diacylglycerol lipase, beta (DAGLb): LCMS-based biochemical dose response assay.; type: functional
[8] = target: T4, Diacylglycerol lipase-beta; experiment: Late stage assay provider results from the probe development effort to identify inhibitors of diacylglycerol lipase, beta (DAGLb): fluorescence-based dose-response biochemical gel-based competitive Activity-Based Protein Profiling (ABPP) inhibition of DAGLb in vitro.; type: functional
[9] = target: Monoacylglycerol lipase ABHD6 (Mus musculus, UniProt Q8R2Y0); experiment: Late stage assay provider results from the probe development effort to identify inhibitors of diacylglycerol lipase, beta (DAGLb): fluorescence-based dose-response biochemical gel-based competitive Activity-Based Protein Profiling (ABPP) inhibition of antitarget ABHD6 in vitro, set 2.; type: functional
Vero = experiment: viability loss in Vero cells – cell-based, plate reader, cherry-pick samples, cytotoxicity control, dose response (AID 687020); type: functional; details: Chlorocebus sabaeus
[10] = target: Metabotropic glutamate receptor 3 (Rattus norvegicus, UniProt P31422); experiment: inhibitors of rat mGlu3 Galpha15 signaling – TREx293 cells, calcium flux, mGlu3 NAM project, dose response (AID 651840); type: functional
[11] = A Cell-Based Confirmatory Screen for Compounds that Inhibit VEEV, TC-83 (3).; type: functional
[12] = target: Potassium channel subfamily K member 9 (Homo sapiens, UniProt Q9NPC2); experiment: KCNK9 flux blockade, concentration-response – cell-based, FluxOR thallium flux, selectivity assay for TASK1 inhibitor project, SAR follow-up (AID 652211); type: functional;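 further: potency is for inhibitors of the channel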
Sequence of Potassium channel subfamily K member 9 (Q9NPC2 whole entry): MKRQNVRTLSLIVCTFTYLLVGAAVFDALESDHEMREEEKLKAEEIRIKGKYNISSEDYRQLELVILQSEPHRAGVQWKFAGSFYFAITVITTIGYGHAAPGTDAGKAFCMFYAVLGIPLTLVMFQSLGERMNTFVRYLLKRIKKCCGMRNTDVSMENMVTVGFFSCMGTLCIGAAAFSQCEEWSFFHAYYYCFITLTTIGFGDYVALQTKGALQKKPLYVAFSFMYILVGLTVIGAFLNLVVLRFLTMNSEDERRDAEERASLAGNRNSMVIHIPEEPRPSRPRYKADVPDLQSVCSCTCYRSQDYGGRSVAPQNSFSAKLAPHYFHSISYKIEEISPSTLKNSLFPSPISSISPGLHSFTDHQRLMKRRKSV

T4 sequence (Q91WC9 whole entry): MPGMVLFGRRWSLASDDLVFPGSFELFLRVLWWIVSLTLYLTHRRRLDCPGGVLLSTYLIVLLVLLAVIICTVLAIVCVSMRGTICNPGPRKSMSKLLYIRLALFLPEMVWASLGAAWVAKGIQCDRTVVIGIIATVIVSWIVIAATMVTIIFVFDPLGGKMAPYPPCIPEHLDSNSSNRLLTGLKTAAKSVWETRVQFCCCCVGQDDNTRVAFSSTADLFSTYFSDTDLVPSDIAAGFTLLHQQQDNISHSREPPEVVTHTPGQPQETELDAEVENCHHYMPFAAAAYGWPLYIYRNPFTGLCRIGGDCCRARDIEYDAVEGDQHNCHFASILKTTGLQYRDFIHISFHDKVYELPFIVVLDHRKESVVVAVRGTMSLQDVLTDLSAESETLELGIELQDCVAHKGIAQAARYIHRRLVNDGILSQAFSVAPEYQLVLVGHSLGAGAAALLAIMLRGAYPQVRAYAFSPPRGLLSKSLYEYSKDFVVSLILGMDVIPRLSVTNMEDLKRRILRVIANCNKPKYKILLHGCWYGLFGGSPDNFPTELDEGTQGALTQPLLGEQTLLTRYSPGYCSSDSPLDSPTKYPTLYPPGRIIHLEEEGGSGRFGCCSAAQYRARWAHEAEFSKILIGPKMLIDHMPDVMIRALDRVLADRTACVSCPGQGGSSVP
T3 sequence (P07550 whole entry): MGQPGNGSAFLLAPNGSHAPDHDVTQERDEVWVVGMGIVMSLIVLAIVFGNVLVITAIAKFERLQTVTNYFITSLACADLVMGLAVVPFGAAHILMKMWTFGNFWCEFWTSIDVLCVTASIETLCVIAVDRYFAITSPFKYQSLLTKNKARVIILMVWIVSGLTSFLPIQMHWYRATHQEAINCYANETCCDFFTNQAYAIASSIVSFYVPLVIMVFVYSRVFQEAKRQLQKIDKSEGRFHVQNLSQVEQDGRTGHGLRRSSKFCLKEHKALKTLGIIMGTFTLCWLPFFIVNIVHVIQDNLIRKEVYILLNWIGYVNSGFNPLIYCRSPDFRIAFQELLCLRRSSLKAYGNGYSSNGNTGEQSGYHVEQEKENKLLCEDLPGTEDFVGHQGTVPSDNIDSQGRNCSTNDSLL
Sequence of Monoacylglycerol lipase ABHD6 (Q8R2Y0 whole entry): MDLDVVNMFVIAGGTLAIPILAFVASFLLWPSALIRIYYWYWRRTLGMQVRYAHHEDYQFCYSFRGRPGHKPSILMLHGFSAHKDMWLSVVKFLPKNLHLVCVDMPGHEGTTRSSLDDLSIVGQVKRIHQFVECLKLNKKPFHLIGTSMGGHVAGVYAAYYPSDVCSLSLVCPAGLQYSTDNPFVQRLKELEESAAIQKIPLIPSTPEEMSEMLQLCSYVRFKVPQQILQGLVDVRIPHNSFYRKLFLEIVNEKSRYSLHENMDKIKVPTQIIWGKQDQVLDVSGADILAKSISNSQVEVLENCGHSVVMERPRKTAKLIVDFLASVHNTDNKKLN
Sequence of Latent membrane protein 1 (P03230 whole entry): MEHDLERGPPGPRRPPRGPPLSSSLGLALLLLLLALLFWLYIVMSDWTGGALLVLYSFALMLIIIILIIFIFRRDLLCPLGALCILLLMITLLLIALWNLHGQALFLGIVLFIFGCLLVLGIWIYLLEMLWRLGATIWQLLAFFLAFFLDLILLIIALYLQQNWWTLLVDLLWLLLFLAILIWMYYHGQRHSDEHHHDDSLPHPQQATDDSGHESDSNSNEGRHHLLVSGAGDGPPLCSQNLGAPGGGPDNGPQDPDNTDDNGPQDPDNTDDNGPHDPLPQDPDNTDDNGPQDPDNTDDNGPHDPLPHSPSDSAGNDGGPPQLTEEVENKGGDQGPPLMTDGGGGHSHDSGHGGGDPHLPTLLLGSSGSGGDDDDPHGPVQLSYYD
Sequence of Metabotropic glutamate receptor 3 (P31422 whole entry): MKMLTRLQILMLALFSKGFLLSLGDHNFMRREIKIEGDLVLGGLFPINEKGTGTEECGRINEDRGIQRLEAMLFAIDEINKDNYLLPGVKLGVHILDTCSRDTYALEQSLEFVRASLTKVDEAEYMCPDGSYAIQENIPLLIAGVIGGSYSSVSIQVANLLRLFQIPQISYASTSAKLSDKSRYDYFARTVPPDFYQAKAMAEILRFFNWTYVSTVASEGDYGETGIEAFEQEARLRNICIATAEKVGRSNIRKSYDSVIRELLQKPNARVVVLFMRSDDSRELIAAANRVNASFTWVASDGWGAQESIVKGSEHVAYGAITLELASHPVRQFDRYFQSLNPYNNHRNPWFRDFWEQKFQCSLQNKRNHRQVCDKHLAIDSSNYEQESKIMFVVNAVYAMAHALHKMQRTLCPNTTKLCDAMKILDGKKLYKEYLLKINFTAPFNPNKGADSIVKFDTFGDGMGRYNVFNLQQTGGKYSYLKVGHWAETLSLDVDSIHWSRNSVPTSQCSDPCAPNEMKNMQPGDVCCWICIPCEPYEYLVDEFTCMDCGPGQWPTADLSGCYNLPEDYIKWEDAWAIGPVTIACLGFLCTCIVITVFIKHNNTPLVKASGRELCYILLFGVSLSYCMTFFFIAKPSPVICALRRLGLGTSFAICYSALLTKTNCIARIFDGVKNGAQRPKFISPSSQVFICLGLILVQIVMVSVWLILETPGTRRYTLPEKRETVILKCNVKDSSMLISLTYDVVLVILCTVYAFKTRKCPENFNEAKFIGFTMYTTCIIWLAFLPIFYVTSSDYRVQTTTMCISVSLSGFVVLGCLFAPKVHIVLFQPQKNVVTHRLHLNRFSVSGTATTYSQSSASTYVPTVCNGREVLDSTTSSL
Sequence of Botulinum neurotoxin type F (P30996 1-436 limits assumed): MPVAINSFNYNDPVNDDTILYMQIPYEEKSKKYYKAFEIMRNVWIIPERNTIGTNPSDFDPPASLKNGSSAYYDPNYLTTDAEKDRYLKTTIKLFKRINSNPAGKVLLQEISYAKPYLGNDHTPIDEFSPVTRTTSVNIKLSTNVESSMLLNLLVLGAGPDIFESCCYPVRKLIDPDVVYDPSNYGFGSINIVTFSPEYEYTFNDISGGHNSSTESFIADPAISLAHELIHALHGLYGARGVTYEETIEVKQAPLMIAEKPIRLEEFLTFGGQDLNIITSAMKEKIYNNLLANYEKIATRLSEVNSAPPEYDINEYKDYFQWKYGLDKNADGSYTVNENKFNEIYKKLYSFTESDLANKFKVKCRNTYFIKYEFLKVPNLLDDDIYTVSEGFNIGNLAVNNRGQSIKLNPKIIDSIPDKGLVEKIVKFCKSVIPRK

For `COc1ccc(Cc2nnc(SCC(=O)N3CCc4ccccc4C3)o2)cc1`, the IC50 [1] was 72.5 µM (inactive), the IC50 (Caspase-3) was 48.1 µM (active) and the IC50 [2] was 10.3 µM (active).

For `COc1ccc(C(=O)OCC(=O)c2c[nH]c3ccccc23)cc1OC`, the EC50 [3] was > 20 µM (inactive) and the AC50 [4] was 164 µM (active).

In the case of `CN(CC(=O)N1CCN(c2ccccn2)CC1)S(=O)(=O)c1ccc(Cl)cc1`, the EC50 [5] is reported as 0.0396 µM (active) and the EC50 [6] is reported as 0.357 µM (active).

In the case of `COc1ccccc1-c1ccc(-c2cn(C(=O)N3CCCCC3Cc3ccccc3)nn2)cc1` (centres undefined), the IC50 [7] is reported as 0.1 µM (active), the IC50 [8] is reported as 0.056 µM (active) and the IC50 [9] is reported as 0.001 µM (active).

With `O=C(Nc1ccc2c(c1)OCO2)c1cc(C2CCCCN2C(=O)OCCF)on1` (centres undefined) the AC50 (Vero) was 31.8 µM (active).

Compound `COc1ccc(C#Cc2ccc(C(=O)N3CC4CCC(=O)C4C3)cc2)cc1` (centres undefined) has an IC50 [10] of 2.05 µM.

For `CN(C(=O)Cc1cccs1)c1nc2c(s1)CCCC2`, the IC50 [11] was 2.92 µM (active).

For `COc1ccccc1C(=O)Nc1cccc(NC(=O)c2ccccc2)c1`, the IC50 [12] was 1.74 µM (active).
